Measured values published in patent publication US10385057B2, “Pyrazole compounds and methods of making and using same” (Lundbeck La Jolla Research Center, Inc., priority 2015, dated 2019).

What was measured:
FAAH = target: T1, FAAH (Mus musculus, UniProt O08914); assay: In vitro competitive activity-based protein profiling, mouse FAAH; type: biochemical; conditions: for inhibition at 1 µM: read-out: FAAH % inh. 1 μM (mouse)
T1 construct: mouse brain membrane fraction or cell lysates for mouse assays; from tissue
T1 sequence (O08914 1-579): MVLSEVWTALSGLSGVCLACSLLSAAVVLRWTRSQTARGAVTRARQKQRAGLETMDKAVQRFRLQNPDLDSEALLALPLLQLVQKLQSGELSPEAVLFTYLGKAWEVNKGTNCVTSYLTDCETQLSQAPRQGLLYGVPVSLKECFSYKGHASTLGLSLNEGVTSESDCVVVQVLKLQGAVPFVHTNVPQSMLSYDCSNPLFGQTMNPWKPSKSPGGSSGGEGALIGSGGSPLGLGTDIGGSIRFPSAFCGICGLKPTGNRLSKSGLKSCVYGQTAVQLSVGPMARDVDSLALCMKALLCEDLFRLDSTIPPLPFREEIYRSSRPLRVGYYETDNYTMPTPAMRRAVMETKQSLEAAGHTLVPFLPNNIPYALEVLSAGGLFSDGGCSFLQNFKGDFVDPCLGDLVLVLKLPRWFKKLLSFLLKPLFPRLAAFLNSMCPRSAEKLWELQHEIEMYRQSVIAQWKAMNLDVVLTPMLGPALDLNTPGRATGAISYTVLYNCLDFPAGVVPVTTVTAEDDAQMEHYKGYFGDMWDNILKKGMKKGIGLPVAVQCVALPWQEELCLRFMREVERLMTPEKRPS
In short: (§1)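 Activity measured as fluorescent gel-band intensity of MAGL and FAAH after SDS-PAGE. Before labelling with FP-Rh or HT-01 (30 min, 37 °C), proteomes at 1.0 mg/mL (mouse brain membrane or lysates; human prefrontal cortex or cell membranes) were exposed to varying inhibitor concentrations for 30 min at 37 °C.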

MAGL = target: T2, MAGL (Mus musculus, UniProt O35678); assay: In vitro competitive activity-based protein profiling, mouse MAGL; type: biochemical; conditions: for inhibition at 1 µM: read-out: MAGL % inh. 1 μM (mouse)
T2 construct: mouse brain membrane fraction or cell lysates for mouse assays; from tissue
T2 sequence (O35678 1-303): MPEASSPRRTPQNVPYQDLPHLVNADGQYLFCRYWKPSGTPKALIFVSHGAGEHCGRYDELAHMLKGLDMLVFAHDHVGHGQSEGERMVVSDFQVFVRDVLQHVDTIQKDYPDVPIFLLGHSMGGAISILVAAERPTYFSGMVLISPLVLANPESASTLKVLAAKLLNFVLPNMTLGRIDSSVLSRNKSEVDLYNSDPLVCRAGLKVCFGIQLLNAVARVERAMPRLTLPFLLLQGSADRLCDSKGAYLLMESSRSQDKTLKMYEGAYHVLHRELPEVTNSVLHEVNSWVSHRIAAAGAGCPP
In short: as §1

| IC50 (FAAH) [nM] | inhibition at 1 µM (FAAH) [%] | IC50 (MAGL) [nM] | inhibition at 1 µM (MAGL) [%] | Structure (SMILES) |
| --- | --- | --- | --- | --- |
| ≤ 100 | ≥ 75 | ≤ 100 | ≥ 75 | O=C(N1CC2CN(Cc3cccc(Cl)c3)CC2C1)n1cc(Cl)cn1 (stereo not drawn) [Example 117, (4-chloro-1H-pyrazol-1-yl)(5-(3-chlorobenzyl)hexahydropyrrolo[3,4-c]pyrrol-2(1H)-yl)methanone] |
| ≤ 100 | ≥ 75 | ≤ 100 | ≥ 75 | O=C(N1CC2CN(Cc3ccc(C(F)(F)F)cc3)CC2C1)n1cc(Cl)cn1 (stereo not drawn) [Example 120, (4-chloro-1H-pyrazol-1-yl)(5-(4-(trifluoromethyl)benzyl)hexahydropyrrolo[3,4-c]pyrrol-2(1H)-yl)methanone] |
| ≤ 100 | ≥ 75 | ≤ 100 | ≥ 75 | Cc1cc(-c2ccccc2)ccc1CN1CC2CN(C(=O)n3cc(Cl)cn3)CC2C1 (stereo not drawn) [Example 121, (4-chloro-1H-pyrazol-1-yl)(5-((3-methyl-[1,1′-biphenyl]-4-yl)methyl)hexahydropyrrolo[3,4-c]pyrrol-2(1H)-yl)methanone] |
| 100 to 1000 | ≥ 75 | 100 to 1000 | ≥ 75 | O=C(N1CC2CN(Cc3ccc(CN4CCOCC4)cc3)CC2C1)n1cc(Cl)cn1 (stereo not drawn) [Example 122, (4-chloro-1H-pyrazol-1-yl)(5-(4-(morpholinomethyl)benzyl)hexahydropyrrolo[3,4-c]pyrrol-2(1H)-yl)methanone] |
| 100 to 1000 | ≥ 75 | 100 to 1000 | ≥ 75 | O=C(N1CC2CN(Cc3ccc(N4CCCC4)cc3)CC2C1)n1cc(Cl)cn1 (stereo not drawn) [Example 123, (4-chloro-1H-pyrazol-1-yl)(5-(4-(pyrrolidin-1-yl)benzyl)hexahydropyrrolo[3,4-c]pyrrol-2(1H)-yl)methanone] |
| ≤ 100 | ≥ 75 | ≤ 100 | ≥ 75 | O=C(N1CC2CN(Cc3cccc(Oc4ccccc4)c3)CC2C1)n1cc(Cl)cn1 (stereo not drawn) [Example 124, (4-chloro-1H-pyrazol-1-yl)(5-(3-phenoxybenzyl)hexahydropyrrolo[3,4-c]pyrrol-2(1H)-yl)methanone] |
| 100 to 1000 | ≥ 75 | 100 to 1000 | ≥ 75 | O=C(N1CC2CN(Cc3ccc(N4CCOCC4)cc3)CC2C1)n1cc(Cl)cn1 (stereo not drawn) [Example 125, (4-chloro-1H-pyrazol-1-yl)(5-(4-morpholinobenzyl)hexahydropyrrolo[3,4-c]pyrrol-2(1H)-yl)methanone] |
| ≤ 100 | ≥ 75 | ≤ 100 | ≥ 75 | O=C(N1CC2CN(Cc3ccc(N4CCOCC4)cc3Cl)CC2C1)n1cc(Cl)cn1 (stereo not drawn) [Example 126, (4-chloro-1H-pyrazol-1-yl)(5-(2-chloro-4-morpholinobenzyl)hexahydropyrrolo[3,4-c]pyrrol-2(1H)-yl)methanone] |
| ≤ 100 | ≥ 75 | 100 to 1000 | ≥ 75 | O=C(N1CCC2(CCN(Cc3ccc(Cl)c(Cl)c3)C2)C1)n1cc(Cl)cn1 (stereo not drawn) [Example 127, (4-chloro-1H-pyrazol-1-yl)(7-(3,4-dichlorobenzyl)-2,7-diazaspiro[4.4]nonan-2-yl)methanone] |
| 100 to 1000 | ≥ 75 | 100 to 1000 | ≥ 75 | O=C(N1CCC2(CCN(Cc3ccc(C(F)(F)F)cc3)C2)C1)n1cc(Cl)cn1 (stereo not drawn) [Example 128, (4-chloro-1H-pyrazol-1-yl)(7-(4-(trifluoromethyl)benzyl)-2,7-diazaspiro[4.4]nonan-2-yl)methanone] |
|  | 50 to 75 |  | 25 to 50 | O=C(N1CCC2(CCN(Cc3ccc(CN4CCOCC4)cc3)C2)C1)n1cc(Cl)cn1 (stereo not drawn) [Example 129, (4-chloro-1H-pyrazol-1-yl)(7-(4-(morpholinomethyl)benzyl)-2,7-diazaspiro[4.4]nonan-2-yl)methanone] |
